Measured values taken from patent US20220202756A1, “GENETIC VARIANTS ASSOCIATED WITH RESPONSE TO TREATMENT OF NEUROLOGICAL DISORDERS” (VISTAGEN THERAPEUTICS, INC., priority 2019, published 2022).

How the values were obtained:
[1] = cited from earlier work; for crossing of the blood-brain barrier / access to the CNS: after administration
[2] = target: T1, LAT1 transporter (Homo sapiens, UniProt Q01650); assay: AV-101 uptake in HEK-293 cells overexpressing LAT1; type: cell-based
T1 construct: expressed in transfected cells; host or cells: HEK-293
T1 sequence (Q01650 whole entry): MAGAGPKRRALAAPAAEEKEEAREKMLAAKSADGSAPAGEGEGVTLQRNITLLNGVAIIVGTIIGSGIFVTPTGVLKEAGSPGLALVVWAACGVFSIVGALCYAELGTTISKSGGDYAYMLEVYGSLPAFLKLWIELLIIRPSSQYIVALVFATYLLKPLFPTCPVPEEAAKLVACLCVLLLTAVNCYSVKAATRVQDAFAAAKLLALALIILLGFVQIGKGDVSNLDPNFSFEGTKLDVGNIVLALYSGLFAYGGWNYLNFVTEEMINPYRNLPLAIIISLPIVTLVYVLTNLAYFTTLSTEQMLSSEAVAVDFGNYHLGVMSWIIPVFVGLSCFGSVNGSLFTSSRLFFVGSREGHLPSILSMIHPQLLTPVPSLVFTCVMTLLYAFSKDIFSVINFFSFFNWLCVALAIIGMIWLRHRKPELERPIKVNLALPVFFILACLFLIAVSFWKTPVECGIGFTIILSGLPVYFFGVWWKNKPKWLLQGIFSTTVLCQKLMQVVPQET
T1 sequence (P08195 102-630 partner): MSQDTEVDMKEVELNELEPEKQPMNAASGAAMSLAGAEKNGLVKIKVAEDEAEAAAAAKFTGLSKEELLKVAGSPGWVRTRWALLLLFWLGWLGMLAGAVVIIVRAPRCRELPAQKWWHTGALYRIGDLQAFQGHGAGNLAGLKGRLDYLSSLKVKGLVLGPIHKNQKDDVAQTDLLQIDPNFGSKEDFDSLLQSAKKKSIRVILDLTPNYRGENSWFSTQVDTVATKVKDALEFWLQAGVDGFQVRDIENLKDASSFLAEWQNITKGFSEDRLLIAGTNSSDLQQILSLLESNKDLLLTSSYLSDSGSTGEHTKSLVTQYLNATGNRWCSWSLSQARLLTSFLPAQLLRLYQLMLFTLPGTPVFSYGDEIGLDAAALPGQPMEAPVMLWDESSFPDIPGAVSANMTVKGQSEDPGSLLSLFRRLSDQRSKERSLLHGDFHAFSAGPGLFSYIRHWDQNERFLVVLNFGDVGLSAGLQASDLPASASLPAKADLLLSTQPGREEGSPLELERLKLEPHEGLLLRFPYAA
Excerpt: The L-Type Amino Acid Transporter 1 (LAT1, SLC7A5) is part of the SLC7 family and forms a heterodimer with CD98 via a disulphide bond (Mastroberardino, L. et al. Amino-acid transport by heterodimers of 4F2hc/CD98 and members of a permease family. Nature 395, 288-291, doi: 10.1038/26246 (1998)). CD98 (4F2hc, SLC3A2) is a type II glycoprotein that functions as a chaperone for LAT1, stabilizing and facilitating its translocation to the plasma membrane. LAT1 is the functional unit of the complex (Napolitano, L. et al. LAT1 is the transport competent unit of the LAT1/CD98 heterodimeric amino acid transporter. The international journal of biochemistry & cell biology, doi: 10.1016/j.biocel.2015.08.004 (2015)) and substrates include a range of large neutral amino acids such as tyrosine, leucine, isoleucine, valine and phenylalanine as well as pharmaceutical drugs including L-DOPA and gabapentin. (Dickens, D. et al. Transport of gabapentin by LAT1 (SLC7A5). Biochem Pharmacol 85, 1672-1683, doi: 10.1016/j.bcp.2013.03.022 (2013); Uchino, H. et al. Transport of amino acid-related compounds mediated by L-type amino acid transporter 1 (LAT1): insights into the mechanisms of substrate recognition. Molecular pharmacology 61, 729-737 (2002)). The SLC7A5 locus with rsid rs28582913 has a single nucleotide polymorphism, wherein the minor allele, T instead of C, at position 87843494 on chromosome 16, is present in approximately 18-56% of the population depending on ethnicity (https://www.ncbi.nlm.nih.gov/snp/rs28582913#frequency_tab), and results in a 1.94 fold increase in the kynurenine metabolite. […] Additionally, physiological amino acids reduce LAT1 mediated transport of AV-101.

[3] = tested on: Human brain endothelial cells; assay: AV-101 uptake in human brain endothelial cells; type: cell-based
Excerpt: The L-Type Amino Acid Transporter 1 (LAT1, SLC7A5) is part of the SLC7 family and forms a heterodimer with CD98 via a disulphide bond (Mastroberardino, L. et al. Amino-acid transport by heterodimers of 4F2hc/CD98 and members of a permease family. Nature 395, 288-291, doi: 10.1038/26246 (1998)). CD98 (4F2hc, SLC3A2) is a type II glycoprotein that functions as a chaperone for LAT1, stabilizing and facilitating its translocation to the plasma membrane. LAT1 is the functional unit of the complex (Napolitano, L. et al. LAT1 is the transport competent unit of the LAT1/CD98 heterodimeric amino acid transporter. The international journal of biochemistry & cell biology, doi: 10.1016/j.biocel.2015.08.004 (2015)) and substrates include a range of large neutral amino acids such as tyrosine, leucine, isoleucine, valine and phenylalanine as well as pharmaceutical drugs including L-DOPA and gabapentin. (Dickens, D. et al. Transport of gabapentin by LAT1 (SLC7A5). Biochem Pharmacol 85, 1672-1683, doi: 10.1016/j.bcp.2013.03.022 (2013); Uchino, H. et al. Transport of amino acid-related compounds mediated by L-type amino acid transporter 1 (LAT1): insights into the mechanisms of substrate recognition. Molecular pharmacology 61, 729-737 (2002)). […]

[4] = tested on: depression, major depressive disorder; assay: Treatment of depression / MDD in genotyped subjects; type: in vivo, human
Excerpt: In subjects with the BDNF variant, the A allele of the SNP rs6265 a higher dose of the L-4-CI-KYN results in the mood-enhancing or anti-depressive response. Subjects affirmatively report feelings of well-being. This is consistent with reports that the glutamatergic system contributes to the pathophysiology of depression and that stress can induce changes in NMDA receptors. See, for example, Calabrese, et al., PloS one vol. 7,5 (2012): e37916. Twenty-five subjects, both male and female, ages 18 to 65, with a diagnosis of MDD are treated with either L-4-CI-KYN (1,080 or 1,440 mg/day given orally) for 2 weeks, similar in design to similar studies. See e.g., Ibrahim et al. J Clin Psychopharmacol. 2012 August; 32(4): 551-557; Zarate et al. Biol Psychiatry. 2013 Aug. 15; 74(4):257-64; Zarate et al. Arch Gen Psychiatry. 2006 August; 63(8):856-64; Zarate et al. 2005 Biological psychiatry 57 (4), 430-432. The subjects are pre-screened to be positive for at least one of the following variant SNPs, the T allele of SNP rs61825638, the T allele of SNP rs28582913, or the C allele of rs2121337, or positive for the G allele of rs6265. In addition, a control group of twenty-five subjects is pre-screened as lacking any of: the T allele of SNP rs61825638, the T allele of SNP rs28582913, or the C allele of rs2121337, or lacking the G allele of SNP rs6265. […] Montgomery et al. 1979, Brit. J. Psych., 134:382-389. […]

## O=C(O)c1cc(O)c2ccc(Cl)cc2n1 [7-chlorokynurenic acid, reference compound]
[1]
  crossing of the blood-brain barrier / access to the CNS: does not cross the blood-brain barrier

## Nc1cc(COc2c(Cl)cc(C[C@H](N)C(=O)O)cc2Cl)c2oc(-c3ccccc3)nc2c1 [JPH203, reference compound]
[2]; LAT1 inhibitor added, HEK-293 cells overexpressing LAT1
  effect on AV-101 uptake: substantially reduced
[3]; in the presence of JPH203
  effect on AV-101 uptake: significantly diminished

## Nc1cc(Cl)ccc1C(=O)CC(N)C(=O)O [L-4-CI-KYN, L-4-chlorokynurenine]
[2]
  substrate status for the LAT1 transporter: substrate for the LAT1 transporter
[2]; HEK-293 cells overexpressing LAT1
  AV-101 uptake: substantial increase
[3]
  AV-101 uptake: significant uptake
[4]; MDD subjects, 1,080 or 1,440 mg/day orally for 2 weeks
  HDRS and/or MADRS total scores: significant decrease
[4]; subjects with KMO rs61825638 T, SLC7A5 rs28582913 T or ACMSD rs2121337 C variant
  mood enhancing or anti-depressive activity: observed for a higher number of subjects, or for the same number of patients but at a lower dose
[1]
  crossing of the blood-brain barrier / access to the CNS: readily gains access to the central nervous system
[1]; within activated astrocytes
  conversion to 7-chlorokynurenic acid: efficiently converted
